Measurements taken from the supplement of paper PMC6045584.
± gives the standard deviation of the averaged measurements.

Assays:
SUNITINIB = compound: CCN(CC)CCNC(=O)c1c(C)[nH]c(/C=C2\C(=O)Nc3ccc(F)cc32)c1C [SUNITINIB]; assay: surviving fraction relative to DMSO-only wells; higher = less growth inhibition; conditions: exposure time: 5 days
Summary of the method: (§1)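 A line counted only if its three screens reached replicate Pearson r >0.7 and median Z' >0.3. Tumour cells in log phase were seeded at 250–500 per well in 384-well plates and, after 24 hours, kept in continuous contact with inhibitors at 0.5, 1, 5, 10, 50, 100, 500 and 1000 nM for five days. Surviving fraction was taken from CellTiter-Glo luminescence relative to the median of DMSO-only wells.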

VINORELBINE = compound: CCC1=C[C@@H]2CN(C1)Cc1c([nH]c3ccccc13)[C@@](C(=O)OC)(c1cc3c(cc1OC)N(C)[C@H]1[C@@](O)(C(=O)OC)[C@H](OC(C)=O)[C@]4(CC)C=CCN5CC[C@]31[C@@H]54)C2 [VINORELBINE]; assay: as above; conditions: exposure time: 5 days
Summary of the method: as §1

Test System | surviving fraction (SUNITINIB; 0.5 nM) | surviving fraction (SUNITINIB; 1 nM) | surviving fraction (SUNITINIB; 10 nM) | surviving fraction (SUNITINIB; 50 nM) | surviving fraction (SUNITINIB; 100 nM) | surviving fraction (SUNITINIB; 500 nM) | surviving fraction (SUNITINIB; 1000 nM) | surviving fraction (VINORELBINE; 0.5 nM) | surviving fraction (VINORELBINE; 1 nM) | surviving fraction (VINORELBINE; 5 nM) | surviving fraction (VINORELBINE; 10 nM) | surviving fraction (VINORELBINE; 50 nM) | surviving fraction (VINORELBINE; 100 nM) | surviving fraction (VINORELBINE; 500 nM) | surviving fraction (VINORELBINE; 1000 nM) | surviving fraction (SUNITINIB; 5 nM)
SUM149.B1*.S BREAST | 0.877 ± 0.07 | 0.786 ± 0.039 | 0.437 ± 0.023 | 0.988 ± 0.02 | 0.873 ± 0.022 | 0.789 ± 0.02 | 0.27 ± 0.0057 | 1.11 ± 0.042 | 1.06 ± 0.05 | 1.09 ± 0.057 | 0.994 ± 0.015 | 0.338 ± 0.038 | 0.154 ± 0.017 | 0.171 ± 0.019 | 0.193 ± 0.0067 | 
SUM159 BREAST |  | 0.9683 ± 0.0076 | 0.927 ± 0.06 | 0.914 ± 0.12 |  | 0.839 ± 0.13 | 0.548 ± 0.11 | 0.966 ± 0.14 | 0.944 ± 0.2 | 0.941 ± 0.2 | 0.908 ± 0.23 | 0.423 ± 0.19 | 0.156 ± 0.052 | 0.129 ± 0.053 | 0.12 ± 0.046 | 
SYO1 SYNOVIAL | 0.789 ± 0.035 | 0.609 ± 0.092 | 0.313 ± 0.13 | 0.819 ± 0.013 | 0.768 ± 0.036 | 0.52 ± 0.014 | 0.0887 ± 0.054 | 1.03 ± 0.021 | 1 ± 0.027 | 0.818 ± 0.056 | 0.429 ± 0.062 | 0.114 ± 0.011 | 0.0666 ± 0.0041 | 0.052 ± 0.0061 | 0.0546 ± 0.005 | 0.664 ± 0.03
T47D BREAST | 0.93 ± 0.037 | 0.896 ± 0.059 | 0.817 ± 0.034 | 1.11 ± 0.027 | 1.13 ± 0.038 | 1.13 ± 0.04 | 0.985 ± 0.077 | 1.03 ± 0.026 | 1.01 ± 0.03 | 0.735 ± 0.026 | 0.609 ± 0.023 | 0.356 ± 0.0061 | 0.341 ± 0.016 | 0.369 ± 0.025 | 0.373 ± 0.013 | 0.911 ± 0.018
